In ChEMBL document CHEMBL4837201, “Increased antibacterial properties of indoline-derived phenolic Mannich bases” (Eur J Med Chem, 2021):
pIC50: −log10 of the molar value. Converted amounts (≈) assume the structure as drawn.

Assays:
[1] = system: Staphylococcus epidermidis; test: Antibacterial activity against Staphylococcus epidermidis ATCC 12228 assessed as inhibition of bacterial growth incubated for 16 to 24 hrs by broth microdilution method; format: functional; conditions: time 16-24 hrs
Bacillus subtilis = test: Antibacterial activity against Bacillus subtilis ATCC 6633 assessed as inhibition of bacterial growth incubated for 16 to 24 hrs by broth microdilution method; format: functional; conditions: time 16-24 hrs
HaCaT [2] = test: Cytotoxicity against human HaCaT cells assessed as reduction in cell viability at 50 uM after 24 hrs by MTT assay; format: cell-based
Enterococcus faecalis [3] = test: Antibacterial activity against Enterococcus faecalis ATCC 29212 assessed as inhibition of bacterial growth incubated for 16 to 24 hrs by broth microdilution method; format: functional; conditions: time 16-24 hrs
Staphylococcus aureus [4] = test: Antibacterial activity against methicillin-sensitive Staphylococcus aureus ATCC 25923 assessed as inhibition of bacterial growth incubated for 16 to 24 hrs by broth microdilution method; format: functional; conditions: time 16-24 hrs
Staphylococcus aureus [5] = test: Antibacterial activity against methicillin-resistant Staphylococcus aureus CIP106760 assessed as inhibition of bacterial growth incubated for 16 to 24 hrs by broth microdilution method; format: functional; conditions: time 16-24 hrs
Enterococcus faecalis [6] = test: Antibacterial activity against vancomycin-resistant Enterococcus faecalis ATCC 51299 assessed as inhibition of bacterial growth incubated for 16 to 24 hrs by broth microdilution method; format: functional; conditions: time 16-24 hrs
Staphylococcus aureus [7] = test: Antibacterial activity against Staphylococcus aureus ATCC 6538 assessed as inhibition of bacterial growth incubated for 16 to 24 hrs by broth microdilution method; format: functional; conditions: time 16-24 hrs
[8] = Toxicity in Saccharomyces cerevisiae ATCC 2601 assessed as reduction in cell viability measured after 24 hrs by microdilution method; conditions: for IC50 at 24 h: Saccharomyces cerevisiae, Saccharomyces cerevisiae ATCC 2601 cells
HaCaT [9] = test: (§1) Cytotoxicity against human HaCaT cells assessed as cell viability at 50 uM after 24 hrs by MTT assay; format: cell-based; conditions: hacat, 24 h, 50 µM
[10] = Antioxidant activity assessed as DPPH radical scavenging activity at 10 ug/ml by DPPH assay relative to control; format: functional; conditions: dose 10.0 µg/ml
Enterococcus faecalis [11] = test: Antibacterial activity against Enterococcus faecalis assessed as inhibition of bacterial growth incubated for 16 to 24 hrs by broth microdilution method; format: functional; conditions: time 16-24 hrs
Staphylococcus aureus [12] = test: Antibacterial activity against Staphylococcus aureus assessed as inhibition of bacterial growth incubated for 16 to 24 hrs by broth microdilution method; format: functional; conditions: time 16-24 hrs
MRC5 = test: Cytotoxicity against human MRC5 cells assessed as reduction in cell viability measured after 24 hrs by MTT assay; format: cell-based; conditions: MRC5, 24 h
Enterococcus faecium = test: Antibacterial activity against Enterococcus faecium assessed as inhibition of bacterial growth incubated for 16 to 24 hrs by broth microdilution method; format: functional; conditions: time 16-24 hrs
Listeria monocytogenes = test: Antibacterial activity against Listeria monocytogenes assessed as inhibition of bacterial growth incubated for 16 to 24 hrs by broth microdilution method; format: functional; conditions: time 16-24 hrs
[13] = Toxicity in Artemia salina assessed as mortality at 10 ug/ml measured after 24 hrs; conditions: at 10 µg/mL
[14] = system: Staphylococcus epidermidis; test: Antibacterial activity against Staphylococcus epidermidis assessed as inhibition of bacterial growth incubated for 16 to 24 hrs by broth microdilution method; format: functional; conditions: time 16-24 hrs
[15] = as §1; format: cell-based; conditions: HaCaT cells, read-out: Activity

Compound | MBC [1] [µM] | MIC [1] [µM] | MBC (Bacillus subtilis) [µM] | MIC (Bacillus subtilis) [µM] | Activity (HaCaT [2]) | MBC (Enterococcus faecalis [3]) [µM] | MIC (Enterococcus faecalis [3]) [µM] | MBC (Staphylococcus aureus [4]) [µM] | MIC (Staphylococcus aureus [4]) [µM] | MBC (Staphylococcus aureus [5]) [µM] | MIC (Staphylococcus aureus [5]) [µM] | MBC (Enterococcus faecalis [6]) [µM] | MIC (Enterococcus faecalis [6]) [µM] | MBC (Staphylococcus aureus [7]) [µM] | MIC (Staphylococcus aureus [7]) [µM] | IC50 at 24 h [8] [µM] | other results
Cc1ccccc1C(c1cc([N+](=O)[O-])ccc1O)N1CCc2cc(Br)ccc21 (configuration not stated) | < 1.18 | < 1.18 | < 1.18 | < 1.18 | Toxic | 8.89 (≈ 3.91 µg/mL) | 1.11 (≈ 0.488 µg/mL) | 35.6 (≈ 15.6 µg/mL) | 2.22 (≈ 0.975 µg/mL) | 1.11 (≈ 0.488 µg/mL) | 1.11 (≈ 0.488 µg/mL) | 142 (≈ 62.4 µg/mL) | 4.45 (≈ 1.95 µg/mL) | 4.45 (≈ 1.95 µg/mL) | 1.11 (≈ 0.488 µg/mL) | > 100 | Activity (HaCaT [9]): Toxic
Cc1ccc(C(c2cc([N+](=O)[O-])ccc2O)N2CCc3cc(O)ccc32)cc1 (configuration not stated) | 302 (≈ 114 µg/mL) | 37.8 (≈ 14.2 µg/mL) | > 9.43 | 2.4 (≈ 0.903 µg/mL) |  | 108 (≈ 40.7 µg/mL) | 135 (≈ 50.8 µg/mL) | 542 (≈ 204 µg/mL) | 67.7 (≈ 25.5 µg/mL) | 108 (≈ 40.7 µg/mL) | 67.7 (≈ 25.5 µg/mL) | 108 (≈ 40.7 µg/mL) | 135 (≈ 50.8 µg/mL) | 332 (≈ 125 µg/mL) | 166 (≈ 62.6 µg/mL) |  | Activity [10]: > 80%
O=[N+]([O-])c1ccc(O)c(C(c2ccc(C(F)(F)F)cc2)N2CCc3ccccc32)c1 (configuration not stated) | < 1.18 | < 1.18 | < 1.18 | < 1.18 | Non-Toxic | 9.43 (≈ 3.91 µg/mL) | 1.18 (≈ 0.489 µg/mL) | 37.7 (≈ 15.6 µg/mL) | 1.18 (≈ 0.489 µg/mL) | 1.18 (≈ 0.489 µg/mL) | 1.18 (≈ 0.489 µg/mL) | 151 (≈ 62.6 µg/mL) | 1.18 (≈ 0.489 µg/mL) | 2.36 (≈ 0.978 µg/mL) | 1.18 (≈ 0.489 µg/mL) | > 100 | MIC (Enterococcus faecalis [11]): 2.36 µM (≈ 0.978 µg/mL); MIC (Staphylococcus aureus [12]): 1.18 µM (≈ 0.489 µg/mL); pIC50 (MRC5): 5.77; MIC (Enterococcus faecium): 2.36 µM (≈ 0.978 µg/mL); MIC (Listeria monocytogenes): 1.18 µM (≈ 0.489 µg/mL); mortality at 24 h, 10 ug/ml [13]: 8%; Activity (HaCaT [9]): Non-Toxic; MIC [14]: 1.18 µM (≈ 0.489 µg/mL)
NYSTATIN |  |  |  |  |  |  |  |  |  |  |  |  |  |  |  |  | pIC50 [8]: 5.48
Cc1ccccc1C(c1cc([N+](=O)[O-])ccc1O)N1CCc2cc(Cl)ccc21 (configuration not stated) | 2.36 (≈ 0.932 µg/mL) | < 1.18 | 4.71 (≈ 1.86 µg/mL) | < 1.18 | Toxic | 9.89 (≈ 3.91 µg/mL) | 1.24 (≈ 0.49 µg/mL) | 39.6 (≈ 15.6 µg/mL) | 2.47 (≈ 0.975 µg/mL) | 2.47 (≈ 0.975 µg/mL) | 1.24 (≈ 0.49 µg/mL) | 158 (≈ 62.4 µg/mL) | 2.47 (≈ 0.975 µg/mL) | 4.95 (≈ 1.95 µg/mL) | 1.24 (≈ 0.49 µg/mL) | > 100 | viability at 24 h, 50 µM [15]: 3%
COc1ccc2c(c1)CCN2C(c1ccc(C)cc1)c1cc([N+](=O)[O-])ccc1O (configuration not stated) | 4.71 (≈ 1.84 µg/mL) | < 1.18 | 4.71 (≈ 1.84 µg/mL) | < 1.18 |  | 160 (≈ 62.5 µg/mL) | 10 (≈ 3.9 µg/mL) | 160 (≈ 62.5 µg/mL) | 20 (≈ 7.81 µg/mL) | 40 (≈ 15.6 µg/mL) | 10 (≈ 3.9 µg/mL) | 160 (≈ 62.5 µg/mL) | 20 (≈ 7.81 µg/mL) | 80 (≈ 31.2 µg/mL) | 20 (≈ 7.81 µg/mL) |  | 
CN[C@H](CC(C)C)C(=O)N[C@H]1C(=O)N[C@@H](CC(N)=O)C(=O)N[C@H]2C(=O)N[C@H]3C(=O)N[C@H](C(=O)N[C@H](C(=O)O)c4cc(O)cc(O)c4-c4cc3ccc4O)[C@H](O)c3ccc(c(Cl)c3)Oc3cc2cc(c3O[C@@H]2O[C@H](CO)[C@@H](O)[C@H](O)[C@H]2O[C@H]2C[C@](C)(N)[C@H](O)[C@H](C)O2)Oc2ccc(cc2Cl)[C@H]1O [VANCOMYCIN] |  | 1.95 (≈ 2.83 µg/mL) |  | 1.95 (≈ 2.83 µg/mL) |  |  | 3.07 (≈ 4.45 µg/mL) |  | 5.4 (≈ 7.83 µg/mL) |  | < 1.5 |  | < 5.83 |  | 1.35 (≈ 1.96 µg/mL) |  | 
O=[N+]([O-])c1ccc(O)c(C(c2ccc(Cl)cc2)N2CCc3ccccc32)c1 (configuration not stated) |  |  |  |  |  | > 9.86 | 1.23 (≈ 0.468 µg/mL) | 9.86 (≈ 3.75 µg/mL) | 2.47 (≈ 0.941 µg/mL) | < 1.23 | 1.23 (≈ 0.468 µg/mL) | 19.7 (≈ 7.5 µg/mL) | 1.23 (≈ 0.468 µg/mL) | 2.47 (≈ 0.941 µg/mL) | 1.23 (≈ 0.468 µg/mL) | > 100 | mortality at 24 h, 10 ug/ml [13]: < 15%
